Data set [1] in a line: Cytotoxicity study (CellTiter 96 AQueous One) in HepG2 cells. It counts as cell-based. Conditions: human, HepG2 cells, read-out: Cells viability (%, means ± SEM) HepG2. The method, then: (§1) The cytotoxicity of active compounds was tested on LLC-MK2, Vero, THP-1, HEK-293, HepG2 and C6/36 cell lines. Each cell line was seeded at 1 × 10^4 cells per well in 96-well plates and incubated overnight. The compounds were added at the indicated concentrations and the cells were incubated for 48 h, unless indicated otherwise. Cell viability was analyzed using CellTiter 96® AQueous One Solution Cell Proliferation Assay kit (Promega, Wisconsin-Madison, USA) according to manufacturer’s protocol. The plate was read at the A 450 in a VICTORTM × 3 microplate reader (PerkinElmer, Massachusetts, USA). Percent cell viability in compound-treated wells was calculated using reference DMSO-treated cells as a 100% cell viability control. The CC50 values of LLC/MK2 cells were calculated using nonlinear regression analysis. Results were reported as means and standard error of the means (SEM) of CC50 values of three independent experiments in which each drug concentration was tested in triplicate.

Data set [2] has as its system LLC/MK2 cells. The data set can be described thus: Cytotoxicity study (CellTiter 96 AQueous One) in LLC/MK2 cells. It counts as cell-based. Conditions: LLC/MK2 cell viability at 120 h versus 48 h; in words. The method, then:
as §1

Assay in data set [3]: as above
The data set is classed as cell-based. Conditions: rhesus monkey, LLC/MK2 cells. Here is the method: as §1

Data set [4] can be described thus: Cytotoxicity study, summary statements over human-derived cell lines. The data set is classed as cell-based. Conditions: HepG2 and HEK-293 cells, THP-1, HepG2, HEK-293, 10 and 25 µM, Table 2. Here is the method:
as §1

The test system of data set [5] is ZIKV (SV0010/15). Briefly: Antiviral efficacy (EC50) in virus infected LLC/MK2 cells, plaque assay. It counts as cell-based, Zika virus.
Description: (§2) Compound at various concentrations were added to virus infected LLC/MK2 cells and viral titers were accessed by plaque titration of supernatants as previously described.
(§3) LLC/MK2 cells were seeded at 5 × 10^4 cells into each well of 24-well plate and incubated overnight at 37 °C under 5% CO2. Cells were infected with DENV2 at the multiplicity of infection (M.O.I.) of 0.1, unless indicated otherwise, for 1 h with gentle rocking every 15 min. Cells were washed with phosphate buffer saline (PBS) and incubated with 1 ml of MEM medium supplemented with 1% FBS as previously described. The compounds were prepared in dimethylsulfoxide (DMSO) at the indicated concentrations before addition to viral infected cells. Supernatants were collected after 5 day incubation and analyzed by plaque titration[9].
(§4) Compounds were prepared in DMSO at 8–12 different concentrations and added to virus infected cells as previously described. Supernatants were collected and the EC50 values were calculated from nonlinear regression analysis.
Data set [6] deals with T1, DENV2 NS2B/3 protease (Dengue virus type 2, UniProt P14340).
T1 construct: DENV2 NS2BH-(QR)-NS3pro enzyme3
The data set can be described thus: In vitro protease assay. The data set is classed as biochemical. Conditions: in words.
Description: Assays were performed in triplicate in a 96-well half area black plate
(Greiner Bio-One, Monroe, NC, USA). The reaction mixture (100 μl) contained
200 mM Tris-HCl, pH 9.5, 30% glycerol, 0.1% CHAPS, 1% DMSO, 50 nM
DENV2 NS2BH-(QR)-NS3pro enzyme3, 10 µM fluorogenic tetrapeptide
substrate, Bz-Nle-Lys-Arg-Arg-AMC, and designated concentrations of
compounds in DMSO (concentration of 1%). The compound-enzyme mixture
was pre-incubated for 15 min at room temperature before addition of the
substrate. The reaction was continued at 37 οC for 30 min. The release of AMC
from the substrate was recorded every 1.5 min at 380 nm excitation and 460 nm
emission in a SpectraMax Gemini EM spectrofluorometer (Molecular Devices,
Sunnyvale, CA). DMSO alone (concentration of 1%) was used as the no-inhibitor
control (100% protease activity) and the bovine pancreatic trypsin inhibitor
protease, was used at 5 µM in DMSO concentration of 1% as a positive control
(0% protease activity). Data were plotted and reported as percent inhibition of
each compound to protease activity.
The in vitro enzymatic protease assay. Compounds were prepared three
concentrations and mixed with protein, added substrate (Bz)-Nle-Arg-arg-AMC
and measured at 460 nm with an excitation at 380 nm.

Data set [7] has as its system DENV1 (16007). Briefly: Antiviral efficacy (EC50) in virus infected LLC/MK2 cells, plaque assay. It counts as cell-based, Dengue virus.
Description: as §2, §3, §4
The nature of data set [8]: Cytotoxicity study (CellTiter 96 AQueous One) in HEK-293 cells. The data set is classed as cell-based. The note with it: human, HEK-293 cells, read-out: Cells viability (%, means ± SEM) HEK-293. The method, then:
as §1

Data set [9] concerns DENV4 (c0036). Briefly: Antiviral efficacy (EC50) in virus infected LLC/MK2 cells, plaque assay. It counts as cell-based, Dengue virus.
Description: as §2, §3, §4
The subject of data set [10] is DENV2 NGC. Briefly: Primary screening: compounds added to DENV2 infected LLC/MK2 cells, plaque titration of culture supernatants. It counts as cell-based, Dengue virus. The method, then:
In this study, we selected 8 flavonoid derivatives (Fig. 1) and tested their effect on DENV2 NGC in a LLC/MK2 cell-based system. Briefly, the compounds at final concentrations of 10 μM and 25 μM in DMSO were added to DENV2 infected LLC/MK2 cells and the effect on viral particle production was measured by plaque titration of the culture supernatants. […] We also tested cytotoxicity of FV13, FV14, and CH1 to verify the viral inhibition in LLC/MK2 cells (Table 2). The viabilities of FV13 treated cells were 81.00 ± 2.69% and 59.40 ± 2.42%, at 10, and 25 µM respectively, whereas the values for FV14 treated cells were 60.24 ± 3.31% and 60.86 ± 3.57%. We also examined Vero, THP-1, HepG2, and HEK-293 cell viabilities in the presence of selected compounds (Table 2).
LLC/MK2 cells were seeded at 5 × 10^4 cells into each well of 24-well plate and incubated overnight at 37 °C under 5% CO2. Cells were infected with DENV2 at the multiplicity of infection (M.O.I.) of 0.1, unless indicated otherwise, for 1 h with gentle rocking every 15 min. Cells were washed with phosphate buffer saline (PBS) and incubated with 1 ml of MEM medium supplemented with 1% FBS as previously described. The compounds were prepared in dimethylsulfoxide (DMSO) at the indicated concentrations before addition to viral infected cells. Supernatants were collected after 5 day incubation and analyzed by plaque titration. In primary screening, DMSO-treated cells served as the untreated control. Compounds that inhibited virus production by ≥90% were selected for further characterization.

Data set [11] can be described thus: Cytotoxicity study (CellTiter 96 AQueous One) in THP-1 cells. The data set is classed as cell-based. The note with it: human, THP-1 cells, read-out: Cells viability (%, means ± SEM) THP-1. Here is the method: as §1
The nature of data set [12]: Stability of compound in DMSO at room temperature by 1H-NMR. The note with it: 4 mM in DMSO, sampled at 24, 72, 120 h. The data set is classed as physicochemical. Here is the method:
The FV13 (6,8-dibromo-5,7-dihydroxyflavone) was tested for the stability by dissolving in DMSO at a concentration of 4 mM FV13 solution. The solution was incubated at room temperature and sampled out at 24, 72, and 120 hours for ^1H-NMR analysis.

In data set [13] the test system is DENV2 (NGC). Briefly: Antiviral efficacy (EC50) in virus infected LLC/MK2 cells, plaque assay. It counts as cell-based, Dengue virus.
Description: as §2, §3, §4
Where [14] appears, read: Dengue virus, DENV2, LLC-MK2, read-out: DENV2 inhibition (%, means ± SEM).

A value given as a limit tells only on which side of the number the result lay.

T1 sequence (P14340 1398-1437): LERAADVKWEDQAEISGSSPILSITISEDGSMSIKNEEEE
T1 sequence (P14340 1476-1653): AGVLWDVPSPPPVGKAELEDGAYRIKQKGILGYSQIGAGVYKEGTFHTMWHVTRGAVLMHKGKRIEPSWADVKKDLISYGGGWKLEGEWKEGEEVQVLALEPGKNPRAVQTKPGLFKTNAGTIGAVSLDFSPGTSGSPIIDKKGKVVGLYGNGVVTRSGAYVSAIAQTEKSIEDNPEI

Usually EC50 stands for the concentration that produces a half-maximal response. The low end stands for higher potency in that assay, the high end for lower potency in that assay. Usually inhibition stands for how much of the control response was suppressed. As for `O=c1cc(-c2ccccc2)oc2c(Br)c(O)c(Br)c(O)c12` [FV13, 6,8-dibromo-5,7-dihydroxyflavone], the viability at 48 h, 10 µM is 85.8 ± 4.7% in data set [1] (10 μM); 81 ± 2.69% in data set [3] (10 μM, 48 h, read-out: Cells viability (%, means ± SEM) LLC/MK2); 98.1 ± 0.72% in [8] (10 μM); over 100% in [11] (10 μM). Moreover, the viability at 48 h, 25 µM stood at 84.6 ± 2.79% in data set [1] (25 μM); 59.4 ± 2.42% in [3] (25 μM, 48 h, read-out: Cells viability (%, means ± SEM) LLC/MK2); 89.4 ± 5.6% in [8] (25 μM); 86.9 ± 2.1% in [11] (25 μM). The “effect of long term incubation on cytotoxicity” value in data set [2] was “similarly non-toxic at both 48 and 120 h”. Besides, the CC50 at 48 h in data set [3] (48 h incubation, read-out: CC50 (cytotoxic concentration)) turned out to be 44300 ± 2900 nM. In data set [4], this compound displayed a viability at 48 h of over 80%. Further, the “S.I. Selectivity index (CC50/EC50)” value in [5] (CC50 in LLC/MK2) is on record as 27.02; in data set [7] (DENV1 (16007), CC50 in LLC/MK2) it was 19.42; in [9] (DENV4 (c0036), CC50 in LLC/MK2), 25.12; in data set [13] (DENV2 (NGC), CC50 in LLC/MK2), 30.43. Besides, the EC50 was determined as 1650 ± 860 nM in [5] (Zika virus, LLC/MK2, plaque assay in 24-well plates); 2300 ± 1040 nM in data set [7] (Dengue virus, DENV1, LLC-MK2); 1780 ± 720 nM in [9] (Dengue virus, DENV4, LLC-MK2); 1470 ± 860 nM in data set [13] (Dengue virus, DENV2, LLC-MK2). The “targeting of DENV2 protease in the in vitro protease assay” value in data set [6] is “did not target DENV2 protease”. Moreover, the “inhibition of virus production” value in [10] (10 μM and 25 μM, summary of Table 1) is recorded as over 99%. The inhibition at 10 µM in data set [10] (setting [14]) is 99.45 ± 0.48%. In data set [10] (setting [14]), the inhibition at 25 µM worked out at 99.65 ± 0.41%. Besides, the “stability (no decomposition by NMR)” value in data set [12] is listed as “at least 120 h”.

The record behind these values is article PMC5651866, “Halogenated Chrysins Inhibit Dengue and Zika Virus Infectivity” (Scientific Reports, 2017).
